This series concerns HACAT cells. Kind of series: In vitro cell proliferation test (MTT assay) on HACAT cells. Type of series: cell-based, human. As to conditions: 48h, highest concentrations: Cocoa 16µg/mL, Zinc 4µg/mL. The source says: The MTT assay (3-(4,5-dimethylthiazol-2-yl)-2,5-diphenyltetrazolium bromide) is a colorimetric assay used to evaluate in vitro cell proliferation, as it allows to measure proliferation and cell viability through the evaluation of mitochondrial activity (Mosmann et al., 1983). This method is very useful to measure cell growth following treatment with mitogenic agents, antigenic stimuli, growth factors and for cytotoxicity studies. […] Formazan forms crystals, insoluble in the intracellular environment, to which the membranes are substantially impermeable: the molecule can therefore enter the cell, but the product cannot exit if it has been correctly metabolized, that is if the electron transport chains are still metabolically active. The formazan crystals are subsequently solubilized in dimethyl sulfoxide (DMSO), thus causing the solution to color change from yellow to dark blue-violet. The assay was carried out following the method by Mosmann (1983), with some minor modifications. […] The absorbance of the colored solution was measured using a spectrophotometric reader for microplates (BioTek Instruments Inc., BadFriedrichshall, Germany) at a wavelength of 570 nm (reference wavelength at 630 nm). The data were expressed as a percentage of cell viability compared to control cells (ctr), according to the following formula: % cell viability/ctr = (Abssample/Absctr)*100. […]
In general terms: Formazan colour is commonly taken as a measure of viable cells.

Turning to Zinc, the “cytotoxic activity on HACAT cells” value was “significant (p<0.05) cytotoxic activity”.

Values taken from EP4122459A1, “COMPOSITION FOR PREVENTING AND TREATING NAIL ALTERATIONS AND DISEASES” (Giuliani S.p.A., priority 2021, dated 2023).
